From ChEMBL document CHEMBL1159022, “Isolation of Latrunculin A, 6,7-Epoxylatrunculin A, Fijianolide A, and Euryfuran from a New Genus of the Family Thorectidae” (J Nat Prod, 1992)
In brackets after ≈: the same amount, converted by molar mass.

Tests used:
[1] = Inhibition of PMA-induced mouse EL-4.IL-2 cell adhesion at 0.125 ug/ml; format: functional
Candida albicans = assay: Antifungal activity against Candida albicans; format: functional
Mus musculus = species on record: Mus musculus; assay: Inhibition of mouse EL-4.IL-2 cell adhesion at 0.003 to 0.025 ug/ml in absence of PMA; format: functional; settings: filed as agonist
A549 = assay: Antiproliferative activity against human A549 cells; format: functional, cell-based
P388 = assay: Antiproliferative activity against mouse P388 cells; format: functional, cell-based
[2] = Inhibition of PMA-induced mouse EL-4.IL-2 cell adhesion at 0.003 ug/ml; format: functional
[3] = Inhibition of PMA-induced mouse EL-4.IL-2 cell adhesion at 0.025 ug/ml; format: functional

Question: What does the source list for `C/C1=C/C(=O)O[C@@H]2C[C@@H](CC[C@H](C)/C=C\C=C\CC1)O[C@@](O)([C@@H]1CSC(=O)N1)C2` [LATRUNCULIN A]?
Answer: inhibition at 0.125 µg/mL [1]: 50%; MIC (Candida albicans): 15.6 µg/mL (≈ 37 µM)

Question: Which Activity (Mus musculus) does the source give for `C=C1C[C@H](C)C[C@@H]2CC=C[C@@H](C/C=C\C(=O)O[C@H]3C[C@@H](O[C@H]3/C=C/[C@@H]3CC(C)=CCO3)[C@@H](O)[C@@H](O)C1)O2` [FIJIANOLIDE A] here?
Answer: Its Activity is “Agonist”.

Question: What about the IC50 (A549) of the same molecule?
Answer: Its IC50 is 1.4 µg/mL (≈ 2.72 µM).

Question: What about the IC50 (P388) of the same molecule?
Answer: Its IC50 is 1 µg/mL (≈ 1.94 µM).

Question: What about the MIC (Candida albicans) of the same molecule?
Answer: Its MIC is 6.2 µg/mL (≈ 12 µM).

Question: What does the source list for `C/C1=C/C(=O)O[C@@H]2C[C@@H](CC[C@H](C)/C=C\C3OC3CC1)O[C@@](O)([C@@H]1CSC(=O)N1)C2` (stereo partly drawn) [6,7-EPOXYLATRUNCULIN A]?
Answer: IC50 (A549): 0.2 µg/mL (≈ 0.457 µM); IC50 (P388): 1.8 µg/mL (≈ 4.11 µM); MIC (Candida albicans): 25 µg/mL (≈ 57.1 µM); inhibition at 0.003 µg/mL [2]: 100%

Question: What does the source list for `CC1(C)CCC[C@@]2(C)c3cocc3CC[C@H]12` [EURYFURAN]?
Answer: IC50 (A549): 1.5 µg/mL (≈ 6.87 µM); IC50 (P388): 1.6 µg/mL (≈ 7.33 µM); inhibition at 0.025 µg/mL [3]: 48%
